According to article PMC12751014, “Non-Catalytic Inhibitors of the p38/MK2 Interface: Repurposing Approved Drugs to Target Neuroinflammation in Alzheimer’s Disease” (Journal of Medicinal Chemistry, 2025):
“Also recorded” adds a separate entry of the source. Where no end group is shown, it is not given here.

Assays:
p38/MK2 interaction [1] = molecular target: T1, p38/MK2 interaction (Homo sapiens, UniProt Q16539); assay: TR-FRET ultra-high-throughput screening (uHTS), 1536-well, HEK293T lysate VF-p38α / GST-MK2; type: binding; set-up: inhibition of p38/MK2 interaction, primary screen: concentration or dose not given beside the values; conditions: for 620 nm Fold over Control: fluorescence interference readout; for Pct of control: uHTS TR-FRET signal, Emory Enriched Library; for inhibition of p38/MK2 interaction, primary screen: relative to DMSO control, 1536-well
T1 sequence (Q16539 whole entry): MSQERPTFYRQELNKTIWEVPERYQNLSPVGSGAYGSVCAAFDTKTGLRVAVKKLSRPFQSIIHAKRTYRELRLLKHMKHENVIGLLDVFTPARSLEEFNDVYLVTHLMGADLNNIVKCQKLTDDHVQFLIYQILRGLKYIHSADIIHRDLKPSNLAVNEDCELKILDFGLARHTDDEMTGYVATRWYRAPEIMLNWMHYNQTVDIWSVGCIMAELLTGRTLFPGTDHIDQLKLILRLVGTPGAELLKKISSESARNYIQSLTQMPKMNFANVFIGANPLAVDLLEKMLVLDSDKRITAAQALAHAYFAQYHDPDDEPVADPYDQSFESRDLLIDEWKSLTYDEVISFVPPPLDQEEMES

p38/MK2 interaction [2] = molecular target: T1, p38/MK2 interaction; assay: TR-FRET assay with purified recombinant His-p38 and GST-MK2; type: binding; conditions: for IC50: purified His-p38 and GST-MK2, read-out: IC50, inhibition of p38/MK2 PPI (TR-FRET, recombinant purified proteins); for inhibition at 30 µM: read-out: inhibition of p38/MK2 PPI at 30 μM, recombinant purified proteins
Experimental: ENSG00000112062, UniProt ID: Q16539-1) was cloned into a pMCSG7 vector and transformed into Escherichia coli strain BL21(DE3). […] The resuspended cells were lysed through sonication. The lysate was centrifuged for 20 min at 70,000g at 4 °C and the clarified supernatant was passed through a gravity column containing 2 mL Ni-NTA resin pre-equilibrated with equilibration buffer. The resin was then washed with 25 column volumes of equilibration buffer supplemented with 40 mM imidazole, and the protein was eluted with equilibration buffer supplemented with 200 mM imidazole. […] The purity of the enzyme was verified by sodium dodecyl sulfate-polyacrylamide gel electrophoresis (SDS-PAGE) with Coomassie staining, aliquots flash frozen in liquid nitrogen, and stored at -80 °C.

[3] = molecular target: VF-tagged p38 / His-tagged MK2 346–400 docking peptide (Homo sapiens, UniProt Q16539); assay: Cell lysate-based TR-FRET competition assay, VF-p38 / His-MK2 346–400 docking peptide; conditions: HEK293T lysate TR-FRET; read-out: IC50, binding of His-MK2 346–400 docking peptide to VF-p38
Chain of VF-tagged p38 / His-tagged MK2 346–400 docking peptide (Q16539 whole entry): as above

p38/MK2 interaction [4] = molecular target: T1, p38/MK2 interaction; assay: Cell lysate-based TR-FRET (VF-p38 / GST-MK2, HEK293T lysate), dose-response; type: binding; conditions: read-out: IC50, p38/MK2 PPI, cell lysate-based TR-FRET
HMC3 microglial cells = assay: qRT-PCR of LPS-induced cytokine expression in HMC3 microglial cells; type: cell-based, human; conditions: HMC3, 5 μM compound 1 h before 100 ng/mL LPS 4 h
Experimental: HMC3 cells were treated with 100 ng/mL E. coli LPS (Sigma-Aldrich, catalog no. L4005) for 4 h in DMEM media. […] Following pretreatment, iMGLs were challenged with 100 ng/mL LPS and 20 ng/mL interferon-γ (IFN-γ) for 24 h to induce an inflammatory response. At the end of the stimulation, cell lysates were collected for qPCR analysis of TNF-α […] gene expression. Total RNA isolation from cell samples was conducted using the RNeasy Plus kit (Qiagen, catalog no. 74134) according to manufacturer instructions and treated with DNase I (Invitrogen, catalog no. 18068-015). Extracted RNA was quantified using the Nanodrop One Spectrophotometer (Thermo Scientific) and then reverse-transcribed into cDNA in equal quantity (<1000 ng/reaction) with the SuperScript III System (Invitrogen, catalog no. 18080-051) following manufacturer directions. cDNA sample was treated with RNase H (Invitrogen, catalog no. 18021014) and diluted to 4 ng/μL equivalent of the starting total RNA. qPCR was performed in 96-well PCR plates (BioRad, catalog no. HSP9601) using the Realplex4Mastercycler (Eppendorf). Each reaction well combines 5 μL cDNA sample, 10 μL 2X SYBR Green Supermix (BioRad, catalog no. 1725271), 1 μL 5 μM primer mix for each target gene, and nuclease-free water up to 20 μL. […] The primer sequences used were: TNFα forward [NT], reverse [NT]-6 forward [NT], reverse [NT]-1β forward [NT], reverse [NT] Each gene was expression-normalized against the housekeeping gene GAPDH with the primer sequences: forward [NT], reverse [NT] Primers were obtained from Integrated DNA Technologies in lyophilized form. The cycler program was set to denaturation at 95 °C for 15 s, followed by annealing and extension at 60 °C for 60 s, repeated for 40 PCR cycles. Melting curve analyses were performed for each sample to ensure primer specificity. The experiment was performed in biological quadruplicates and technical quadruplicates.

[5] = molecular target: T2, His-tagged p38α (MAPK14), purified recombinant (human, UniProt Q16539-1 1-360); assay: FRET or BRET; TR-FRET with purified His-p38α (10 nM) and GST-MK2 (1 uM), anti-His-d2 and anti-GST-Tb antibodies; 20 mM Tris-HCl pH 7.0, 50 mM NaCl, 0.01% NP-40; room temperature, 2 h; peptides or compounds added as competitors; conditions: both partners purified
T2 construct: also called His-p38; His-p38α; source: E. coli BL21(DE3), purified (Ni-NTA, S200 size exclusion), in-house; or bought: Abcam AB271606; for the FP assay obtained from research collaborators
T2 sequence (Q16539 whole entry): as above

[6] = molecular target: T2, His-tagged p38α (MAPK14), purified …; assay: fluorescence polarisation; 10 nM FITC-MK2 peptide with His-p38α serially diluted 2-fold from a 5 uM working solution; 20 mM Tris-HCl pH 7.0, 50 mM NaCl, 0.01% NP-40; 384-well plate; conditions: both partners purified

With `C=CC(=O)Nc1ccc2ncnc(Nc3ccc(OCc4cccc(F)c4)c(Cl)c3)c2c1` [AST-1306, N-[4-[3-chloro-4-[(3-fluorophenyl)methoxy]anilino]quinazolin-6-yl]prop-2-enamide;4-methylbenzenesulfonic acid] as the molecule, how does the “620 nm Fold over Control” value (p38/MK2 interaction [1]) read?
The value was 1.01.

And the Pct of control (p38/MK2 interaction [1])?
Its Pct of control is 9.2 Pct of control.

`CCc1cn(-c2cc(NC(=O)c3ccc(C)c(Nc4nccc(-c5cccnc5)n4)c3)cc(C(F)(F)F)c2)cn1` [Compound 2] was tested. Which IC50 (p38/MK2 interaction [2]) did it give?
Its IC50 is 2.27 µM.

With `Cc1cn(-c2cc(C(=O)Nc3ccc(C)c(Nc4nccc(-c5cccnc5)n4)c3)cc(C(F)(F)F)c2)cn1` [Compound 3] as the molecule, how does the IC50 (p38/MK2 interaction [2]) read?
Its IC50 is 7.45 µM.

With `Cc1cn(-c2cc(NC(=O)c3ccc(O)c(Nc4nccc(-c5cccnc5)n4)c3)cc(C(F)(F)F)c2)cn1` [Compound 4] as the molecule, how does the IC50 (p38/MK2 interaction [2]) read?
Its IC50 is 8.24 µM.

`Cc1cn(-c2cc(NC(=O)c3ccc(C)c(Nc4ncccn4)c3)cc(C(F)(F)F)c2)cn1` [Compound 5] was tested. Which IC50 (p38/MK2 interaction [2]) did it give?
Its IC50 is 11.5 µM.

How did the IC50 (p38/MK2 interaction [2]) turn out when `CNC(=O)c1ccc(CCNC(=O)C(=O)Nc2cc(-n3cnc(C)c3)cc(C(F)(F)F)c2)cc1` [Compound 6] was run?
Its IC50 is 21.3 µM.

For `Cc1cn(-c2cc(NC(=O)Nc3nnc(-c4ccncc4)s3)cc(C(F)(F)F)c2)cn1` [Compound 7], which inhibition at 30 µM (p38/MK2 interaction [2]) is on record?
Its inhibition at 30 µM is under 50%.

With `Cc1cn(-c2cc(NC(=O)C(=O)NCc3cccc(C(N)=O)c3)cc(C(F)(F)F)c2)cn1` [Compound 8] as the molecule, how does the inhibition at 30 µM (p38/MK2 interaction [2]) read?
The inhibition at 30 µM was under 50%.

With `Cc1cn(-c2cc(NC(=O)c3[nH]cnc3C#N)cc(C(F)(F)F)c2)cn1` [Compound 9] as the molecule, how does the inhibition at 30 µM (p38/MK2 interaction [2]) read?
Its inhibition at 30 µM is under 50%.

For `COc1ccc(CC(=O)Nc2cc(-n3cnc(C)c3)cc(C(F)(F)F)c2)nc1` [Compound 10], which inhibition at 30 µM (p38/MK2 interaction [2]) is on record?
The inhibition at 30 µM was under 50%.

For `CCCCCCCCCCCCc1ccc(S(=O)(=O)Nc2nncs2)cc1` [PHT-427, 4-dodecyl-N-(1,3,4-thiadiazol-2-yl)benzenesulfonamide], which “620 nm Fold over Control” value (p38/MK2 interaction [1]) is on record?
The value was 0.94.

And the Pct of control (p38/MK2 interaction [1])?
The Pct of control was -2.49 Pct of control.

How did the “disruption of p38/MK2 interaction (TR-FRET signal)” value (p38/MK2 interaction [2]; recombinant p38 and MK2 purified from E. coli) turn out when `O=c1ncn2nc(Sc3ccc(F)cc3F)ccc2c1-c1c(Cl)cccc1Cl` [VX-745] was run?
The value was “failed to disrupt the interaction; also recorded: failed to reduce the TR-FRET signal”.

What does the source list for `COc1cc2nc(N(C)CCCNC(=O)C3CCCO3)nc(N)c2cc1OC` (stereo not drawn) [alfuzosin]?
IC50 [3]: 14.4 µM; IC50 (p38/MK2 interaction [2]): 6.9 µM; IC50 (p38/MK2 interaction [4]): 10 µM; LPS-induced TNF-α, IL-6, and IL-1β expression (HMC3 microglial cells): significantly (p-values <0.05) suppressed; inhibition of p38/MK2 interaction, primary screen (p38/MK2 interaction [1]): 82%

`C[C@@H]1[C@H](O)[C@@H](C)/C=C/C=C/C=C/C=C/C=C/C=C/C=C/[C@H](O[C@@H]2O[C@H](C)[C@@H](O)[C@H](N)[C@@H]2O)C[C@@H]2O[C@](O)(C[C@@H](O)C[C@@H](O)[C@H](O)CC[C@@H](O)C[C@@H](O)CC(=O)O[C@H]1C)C[C@H](O)[C@H]2C(=O)O` [amphotericin B] was tested. Which “inhibition of p38/MK2 interaction, primary screen” value (“inhibition of p38/MK2 interaction” for short) (p38/MK2 interaction [1]) did it give?
The value was 51%.

How did the “inhibition of p38/MK2 interaction” value (p38/MK2 interaction [1]) turn out when `CN1CCc2cccc3c2[C@H]1Cc1ccc(O)c(O)c1-3` [apomorphine] was run?
The value was 56%.

How did the “inhibition of p38/MK2 interaction” value (p38/MK2 interaction [1]) turn out when `C=C(c1ccc(C(=O)O)cc1)c1cc2c(cc1C)C(C)(C)CCC2(C)C` [bexarotene] was run?
Its value is 74%.

Which “inhibition of p38/MK2 interaction” value (p38/MK2 interaction [1]) does the source give for `CCOc1nc2cccc(C(=O)OC(C)OC(=O)OC3CCCCC3)c2n1Cc1ccc(-c2ccccc2-c2nnn[nH]2)cc1` (stereo not drawn) [candesartan cilexetil] here?
Its value is 68%.

How did the “inhibition of p38/MK2 interaction” value (p38/MK2 interaction [1]) turn out when `Cc1cc(C(C#N)c2ccc(Cl)cc2)c(Cl)cc1NC(=O)c1cc(I)cc(I)c1O` (stereo not drawn) [closantel] was run?
The value was 53%.

For `COc1cc2nc(N3CCN(C(=O)C4COc5ccccc5O4)CC3)nc(N)c2cc1OC` (stereo not drawn) [doxazosin], which IC50 [3] is on record?
The IC50 was 4.6 µM.

And the IC50 (p38/MK2 interaction [2])?
The IC50 was 4.4 µM.

And the IC50 (p38/MK2 interaction [4])?
The IC50 was 30.1 µM.

What about the “LPS-induced TNF-α, IL-6, and IL-1β expression” value (HMC3 microglial cells) of the same molecule?
The value was “significantly (p-values <0.05) suppressed”.

What about the “inhibition of p38/MK2 interaction” value (p38/MK2 interaction [1]) of the same molecule?
The value was 58%.

Which “inhibition of p38/MK2 interaction” value (p38/MK2 interaction [1]) does the source give for `CN(C)[C@@H]1C(O)=C(C(N)=O)C(=O)[C@@]2(O)C(O)=C3C(=O)c4c(O)cccc4[C@@](C)(O)[C@H]3[C@H](O)[C@@H]12` [oxytetracycline] here?
The value was 51%.

`CS(=O)(=O)c1ccc(C2=C(c3ccccc3)C(=O)OC2)cc1` [rofecoxib] was tested. Which “inhibition of p38/MK2 interaction” value (p38/MK2 interaction [1]) did it give?
The value was 73%.

Which results are given for `COc1cc2nc(N3CCN(C(=O)C4CCCO4)CC3)nc(N)c2cc1OC` (stereo not drawn) [terazosin]?
IC50 [3]: 8.3 µM; IC50 (p38/MK2 interaction [2]): 6.2 µM; IC50 (p38/MK2 interaction [4]): 10.5 µM; LPS-induced TNF-α, IL-6, and IL-1β expression (HMC3 microglial cells): significantly (p-values <0.05) suppressed; inhibition of p38/MK2 interaction, primary screen (p38/MK2 interaction [1]): 77%

B1: FITC-MK2 370–393 peptide (peptide, UniProt P49137 370-393, looked up)
peptide: IKIKKIEDASNPLLLKRRKKARAL
modifications: not fully specified (N-terminus); also: FITC label (position not given here)
notes: MK2 (MAPKAPK2) C-terminal docking motif, residues 370-393 (I370-L393); the methods name the peptide 370-390; also called I370–L393; FITC conjugated MK2 370–390 peptide (methods); source: synthetic peptide, bought: GenScript
Which IC50 [5] does the source give for B1 here?
Its IC50 is 0.42 µM.

And the EC50 [6]?
The EC50 was 0.0269 µM.

B2: FITC-MK2 369–382 peptide (peptide, UniProt P49137 369-382, looked up)
peptide: QIKIKKIEDASNPL
modifications: not fully specified (N-terminus); also: FITC label (position not given here)
notes: MK2 (MAPKAPK2) C-terminal docking motif, residues 369-382 as named in the text; 369-382 would be 14 residues; the legend's I370-L382 is 13 residues; also called I370-L382; truncated 13-residue peptide
With B2 as the molecule, how does the IC50 [5] read?
Its IC50 is 4.26 µM.
